Results from the supplement of paper PMC11061612.

Assays:
Experiment in all cases: combination Emax (second highest fraction inhibited in the dose matrix, 72 h); higher = more inhibition; extreme values may be limits of the assay
C32 (Melanoma) = tested on: C32 (Melanoma)
Outline: (§1)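 Cell lines in DMEM/F12 or RPMI with 10% FBS were plated in 1536-well plates, held 24 hours at 37°C, 5% CO2, then given two-drug dose matrices for 72 hours (DMSO typically 0.2%). Viability was read by CellTiter-Glo 2.0 luminescence and scaled as inhibition from 0 (vehicle wells) to 1 (blank wells). Combination Emax is the second-highest inhibition in the matrix; Bliss excess is observed combination effect minus expected EA + EB − EA·EB, EA and EB being single-agent effects.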

A375 (Melanoma) = tested on: A375 (Melanoma)
Outline: as §1

[1] = tested on: NCI-H2009 (Lung Adenocarcinoma)
Outline: as §1

[2] = tested on: KNS-62 (Squamous Cell Lung Carcinoma)
Outline: as §1

[3] = tested on: RPMI-8402 (T-Lymphoblastic Leukemia)
Outline: as §1

[4] = tested on: GRANTA-519 (B-Cell Non-Hodgkin's Lymphoma)
Outline: as §1

[5] = tested on: SNU-1 (Gastric Carcinoma)
Outline: as §1

[6] = tested on: HT-1197 (Bladder Carcinoma)
Outline: as §1

[7] = tested on: NCI-H1975 (Lung Adenocarcinoma)
Outline: as §1

[8] = tested on: TK (B-Cell Non-Hodgkin's Lymphoma)
Outline: as §1

[9] = tested on: Daudi (Burkitt's Lymphoma)
Outline: as §1

[10] = tested on: JJN-3 (Plasma Cell Myeloma)
Outline: as §1

[11] = tested on: NCI-H1944 (Lung Adenocarcinoma)
Outline: as §1

DK-MG (Glioblastoma) = tested on: DK-MG (Glioblastoma)
Outline: as §1

[12] = tested on: ATN-1 (T-Lymphoblastic Leukemia)
Outline: as §1

[13] = tested on: OCI-M1 (Acute Myeloid Leukemia)
Outline: as §1

Structure (SMILES)	combination Emax (C32 (Melanoma))	combination Emax (A375 (Melanoma))	combination Emax [1]	combination Emax [2]	combination Emax [3]	combination Emax [4]	combination Emax [5]	combination Emax [6]	combination Emax [7]	combination Emax [8]	combination Emax [9]	combination Emax [10]	combination Emax [11]	combination Emax (DK-MG (Glioblastoma))	combination Emax [12]	combination Emax [13]
C=CCn1c(=O)c2cnc(Nc3ccc(N4CCN(C)CC4)cc3)nc2n1-c1cccc(C(C)(C)O)n1 [AZD1775] + CCc1c2c(nc3ccc(O)cc13)-c1cc3c(c(=O)n1C2)COC(=O)[C@]3(O)CC [SN-38] (first compound max 1 µM, partner max 0.3 µM)	0.69	0.925	0.936	0.836	1	–	–	–	–	–	–	–	–	–	–	–
Cc1c2c(nn1C)CSCc1cc(n(C)n1)CSc1cc(c3ccccc3c1)OCCCc1c(C(=O)O)n(C)c3c-2c(Cl)ccc13 [AZD5991] + CS(=O)(=O)CCNCc1ccc(-c2ccc3ncnc(Nc4ccc(OCc5cccc(F)c5)c(Cl)c4)c3c2)o1 [Lapatinib] (first compound max 1 µM, 7x7, partner max 10 µM)	0.228	0.318	0.237	0.213	0.955	–	–	–	–	–	–	–	–	–	–	–
O=C(c1cc(Cc2n[nH]c(=O)c3ccccc23)ccc1F)N1CCN(C(=O)C2CC2)CC1 [Olaparib] + CN(CC[C@H](CSC1=CC=CC=C1)NC2=C(C=C(C=C2)S(=O)(=O)NC(=O)C3=CC=C(C=C3)N4CCC(CC4)[C@H](C5=CC=CC=C5C6=CC=C(C=C6)Cl)O)S(=O)(=O)C(F)(F)F)CCO [AZD4320] (first compound max 10 µM, 7x7, partner max 1 µM)	0.253	0.24	0.112	0.153	0.935	–	–	–	–	–	–	–	–	–	–	–
CN(CCO)CC[C@H](CSc1ccccc1)Nc1ccc(S(=O)(=O)NC(=O)c2ccc(N3CCC([C@@H](O)c4ccccc4-c4ccc(Cl)cc4)CC3)cc2)cc1S(=O)(=O)C(F)(F)F [AZD4320] + CS(=O)(=O)CCNCc1ccc(-c2ccc3ncnc(Nc4ccc(OCc5cccc(F)c5)c(Cl)c4)c3c2)o1 [Lapatinib] (first compound max 1 µM, 7x7, partner max 10 µM)	0.344	0.413	0.349	0.291	0.988	–	–	–	–	–	–	–	–	–	–	–
Cc1c2c(nn1C)CSCc1cc(n(C)n1)CSc1cc(c3ccccc3c1)OCCCc1c(C(=O)O)n(C)c3c-2c(Cl)ccc13 [AZD5991] + CC(=O)O[C@H]1C(=O)[C@@]2(C)[C@H]([C@H](OC(=O)c3ccccc3)[C@]3(O)C[C@H](OC(=O)[C@H](O)[C@@H](NC(=O)c4ccccc4)c4ccccc4)C(C)=C1C3(C)C)[C@]1(OC(C)=O)CO[C@@H]1C[C@@H]2O [Paclitaxel] (first compound max 1 µM, 7x7, partner max 3 µM)	0.654	0.787	0.715	0.6	1	–	–	–	–	–	–	–	–	–	–	–
CC1(C)CCC(CN2CCN(c3ccc(C(=O)NS(=O)(=O)c4ccc(NCC5CCOCC5)c([N+](=O)[O-])c4)c(Oc4cnc5[nH]ccc5c4)c3)CC2)=C(c2ccc(Cl)cc2)C1 [Venetoclax] + CS(=O)(=O)CCNCc1ccc(-c2ccc3ncnc(Nc4ccc(OCc5cccc(F)c5)c(Cl)c4)c3c2)o1 [Lapatinib] (first compound max 1 µM, 7x7, partner max 10 µM)	0.209	0.169	0.151	0.186	0.839	–	–	–	–	–	–	–	–	–	–	–
C[C@@H]1COCCN1c1cc(C2([S@](C)(=N)=O)CC2)nc(-c2ccnc3[nH]ccc23)n1 [AZD6738] + Nc1ccn([C@@H]2O[C@H](CO)[C@@H](O)C2(F)F)c(=O)n1 [Gemcitabine] (first compound max 10 µM, 7x7, partner max 0.3 µM)	0.703	0.991	0.789	0.665	1	–	–	–	–	–	–	–	–	–	–	–
C=CCn1c(=O)c2cnc(Nc3ccc(N4CCN(C)CC4)cc3)nc2n1-c1cccc(C(C)(C)O)n1 [AZD1775] + Nc1ccn([C@@H]2O[C@H](CO)[C@@H](O)C2(F)F)c(=O)n1 [Gemcitabine] (first compound max 1 µM, partner max 0.3 µM)	0.701	0.966	0.907	0.561	1	–	–	–	–	–	–	–	–	–	–	–
Cc1nc(-c2cn3c(n2)-c2ccc(-c4cnn(C(C)(C)C(N)=O)c4)cc2OCC3)n(C(C)C)n1 [Taselisib] + O=C(Nc1ccc2[nH]nc(-c3ccncc3)c2c1)[C@@H]1CCN(CC(=O)N2CCN(c3ccc(-c4ncccn4)cc3)CC2)C1 [SCH772984] (first compound max 10 µM, 7x7, partner max 5 µM)	1	0.918	0.919	0.787	0.898	–	–	–	–	–	–	–	–	–	–	–
Cc1c2c(nn1C)CSCc1cc(n(C)n1)CSc1cc(c3ccccc3c1)OCCCc1c(C(=O)O)n(C)c3c-2c(Cl)ccc13 [AZD5991] + Nc1ccn([C@@H]2O[C@H](CO)[C@@H](O)C2(F)F)c(=O)n1 [Gemcitabine] (first compound max 1 µM, 7x7, partner max 0.3 µM)	0.762	0.961	0.487	0.413	1	–	–	–	–	–	–	–	–	–	–	–
CC(=O)c1c(C)c2cnc(Nc3ccc(N4CCNCC4)cn3)nc2n(C2CCCC2)c1=O [Palbociclib] + CN(CC[C@H](CSC1=CC=CC=C1)NC2=C(C=C(C=C2)S(=O)(=O)NC(=O)C3=CC=C(C=C3)N4CCC(CC4)[C@H](C5=CC=CC=C5C6=CC=C(C=C6)Cl)O)S(=O)(=O)C(F)(F)F)CCO [AZD4320] (first compound max 10 µM, 7x7, partner max 1 µM)	0.209	0.373	–	–	–	0.903	0.831	0.338	0.471	0.996	0.561	0.388	0.628	0.389	0.772	0.994
O=C(c1cc(Cc2n[nH]c(=O)c3ccccc23)ccc1F)N1CCN(C(=O)C2CC2)CC1 [Olaparib] + Cc1c2c(nn1C)CSCc1cc(n(C)n1)CSc1cc(c3ccccc3c1)OCCCc1c(C(=O)O)n(C)c3c-2c(Cl)ccc13 [AZD5991] (first compound max 10 µM, 7x7, partner max 1 µM)	0.0885	0.163	0.107	0.128	0.857	–	–	–	–	–	–	–	–	–	–	–
C[C@@H](Nc1cc(F)cc(F)c1)c1cc(C(=O)N(C)C)cc2c(=O)cc(N3CCOCC3)oc12 [AZD8186] + C1CN(CCC1(C(=O)N[C@@H](CCO)C2=CC=C(C=C2)Cl)N)C3=NC=NC4=C3C=CN4 [AZD5363] (first compound max 10 µM, 7x7, partner max 10 µM)	0.436	0.232	0.26	0.533	0.588	–	–	–	–	–	–	–	–	–	–	–
O=C(c1cc(Cc2n[nH]c(=O)c3ccccc23)ccc1F)N1CCN(C(=O)C2CC2)CC1 [Olaparib] + COc1nnc2ccc(N3CCC(c4ccc(OCCN5CCN(C)C(=O)[C@H]5C)cc4)CC3)nn12 [AZD5153] (first compound max 10 µM, 7x7, partner max 1 µM)	0.22	0.425	0.374	0.436	0.9	–	–	–	–	–	–	–	–	–	–	–
CS(=O)(=O)CCNCc1ccc(-c2ccc3ncnc(Nc4ccc(OCc5cccc(F)c5)c(Cl)c4)c3c2)o1 [Lapatinib] + NC1(c2ccc(-c3nc4ccn5c(=O)[nH]nc5c4cc3-c3ccccc3)cc2)CCC1 [MK-2206] (first compound max 10 µM, 7x7, partner max 10 µM)	0.635	0.89	0.431	0.721	1	–	–	–	–	–	–	0.899	0.941	–	–	0.844
C[C@@H](Nc1cc(F)cc(F)c1)c1cc(C(=O)N(C)C)cc2c(=O)cc(N3CCOCC3)oc12 [AZD8186] + CC(=O)c1c(C)c2cnc(Nc3ccc(N4CCNCC4)cn3)nc2n(C2CCCC2)c1=O [Palbociclib] (first compound max 10 µM, 7x7, partner max 10 µM)	0.342	0.42	0.256	0.358	0.9	–	–	–	–	–	–	–	–	–	–	–
COc1nnc2ccc(N3CCC(c4ccc(OCCN5CCN(C)C(=O)[C@H]5C)cc4)CC3)nn12 [AZD5153] + CN(CC[C@H](CSC1=CC=CC=C1)NC2=C(C=C(C=C2)S(=O)(=O)NC(=O)C3=CC=C(C=C3)N4CCC(CC4)[C@H](C5=CC=CC=C5C6=CC=C(C=C6)Cl)O)S(=O)(=O)C(F)(F)F)CCO [AZD4320] (first compound max 1 µM, 7x7, partner max 1 µM)	0.444	0.476	–	–	–	0.986	0.8	0.845	0.643	1	0.58	0.969	0.616	0.614	0.718	1
C[C@@H](Oc1cc(-c2cnn(C3CCNCC3)c2)cnc1N)c1c(Cl)ccc(F)c1Cl [Crizotinib] + Cn1cnc2c(F)c(Nc3ccc(Br)cc3Cl)c(C(=O)NOCCO)cc21 [Selumetinib] (first compound max 10 µM, 7x7, partner max 10 µM)	0.995	0.938	0.664	0.369	0.99	–	–	–	–	–	–	–	–	–	–	–
CS(=O)(=O)CCNCc1ccc(-c2ccc3ncnc(Nc4ccc(OCc5cccc(F)c5)c(Cl)c4)c3c2)o1 [Lapatinib] + Cn1cnc2c(F)c(Nc3ccc(Br)cc3Cl)c(C(=O)NOCCO)cc21 [Selumetinib] (first compound max 10 µM, 7x7, partner max 10 µM)	0.935	0.736	0.53	0.626	0.924	–	–	–	–	–	–	–	–	–	–	–
